Data taken from patent publication US9192791B2, “Topical composition containing theanine derivatives for use on skin” (AMOREPACIFIC CORPORATION, priority 2011, dated 2015).

System: Human neonatal epidermal keratinocytes (HEK)
Experiment: Evaluation of calcium influx in human neonatal epidermal keratinocytes (fluo 3-AM, confocal microscope)
Format: cell-based
Details: theanine 2.5 mM, theanine derivative 0.5 mM, 5 minutes, then fluo 3-AM 15 minutes, FIG. 4
Experimental: Stabilized human neonatal epidermal keratinocytes (HEK, Lonza, NHEK-Neo-Neonatal Normal Human Epidermal Keratinocytes, Pooled) are dispensed in a confocal dish at a density of 2×10^4 cells per well and treated with theanine (2.5 mM) and the theanine derivative (0.5 mM) for 5 minutes and then with […] fluo 3-AM for 15 minutes. The fluo 3 decomposed in the cells and combined with calcium is observed with a confocal microscope (Nikon, Japan) to measure the difference of fluorescence and evaluate the migration of calcium in the cells.

CCNC(=O)CC[C@H](N)C(=O)O [theanine]
migration of calcium in the cells: definitely different behaviors from each other
